# Laboratory results as given in ChEMBL document CHEMBL4330129 (Bioorg Med Chem, 2019).
# Target: Keap1/Nrf2 (Homo sapiens, UniProt Q14145+Q16236)
# Assay: Binding affinity to FLAG/His-tagged Keap1 (unknown origin)/biotinylated full-length FLAG/His/Tev/Avi-tagged NRF2 (unknown origin) expressed in baculovirus infected Sf9 insect cells measured after 1 hr by TR-FRET assay
# Details: not given
# Sequence of Keap1/Nrf2 (Q16236 whole entry): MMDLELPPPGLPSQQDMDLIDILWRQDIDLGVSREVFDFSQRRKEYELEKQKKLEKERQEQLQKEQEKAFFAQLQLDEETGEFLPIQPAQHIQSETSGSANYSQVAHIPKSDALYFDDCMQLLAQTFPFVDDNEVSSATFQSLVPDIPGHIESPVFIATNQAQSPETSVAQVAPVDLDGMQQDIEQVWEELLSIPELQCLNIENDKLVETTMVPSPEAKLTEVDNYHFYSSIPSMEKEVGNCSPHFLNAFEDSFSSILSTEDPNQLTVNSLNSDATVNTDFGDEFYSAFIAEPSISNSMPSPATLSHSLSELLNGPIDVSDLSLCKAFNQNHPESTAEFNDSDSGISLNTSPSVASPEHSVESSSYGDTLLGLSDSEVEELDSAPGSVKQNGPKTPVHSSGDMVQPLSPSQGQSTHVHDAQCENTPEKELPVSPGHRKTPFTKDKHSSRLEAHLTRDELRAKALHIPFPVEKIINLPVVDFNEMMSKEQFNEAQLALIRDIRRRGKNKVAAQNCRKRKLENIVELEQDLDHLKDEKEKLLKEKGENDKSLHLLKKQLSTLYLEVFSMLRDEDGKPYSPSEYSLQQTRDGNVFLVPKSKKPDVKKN
# Sequence of Keap1/Nrf2 (Q14145 whole entry): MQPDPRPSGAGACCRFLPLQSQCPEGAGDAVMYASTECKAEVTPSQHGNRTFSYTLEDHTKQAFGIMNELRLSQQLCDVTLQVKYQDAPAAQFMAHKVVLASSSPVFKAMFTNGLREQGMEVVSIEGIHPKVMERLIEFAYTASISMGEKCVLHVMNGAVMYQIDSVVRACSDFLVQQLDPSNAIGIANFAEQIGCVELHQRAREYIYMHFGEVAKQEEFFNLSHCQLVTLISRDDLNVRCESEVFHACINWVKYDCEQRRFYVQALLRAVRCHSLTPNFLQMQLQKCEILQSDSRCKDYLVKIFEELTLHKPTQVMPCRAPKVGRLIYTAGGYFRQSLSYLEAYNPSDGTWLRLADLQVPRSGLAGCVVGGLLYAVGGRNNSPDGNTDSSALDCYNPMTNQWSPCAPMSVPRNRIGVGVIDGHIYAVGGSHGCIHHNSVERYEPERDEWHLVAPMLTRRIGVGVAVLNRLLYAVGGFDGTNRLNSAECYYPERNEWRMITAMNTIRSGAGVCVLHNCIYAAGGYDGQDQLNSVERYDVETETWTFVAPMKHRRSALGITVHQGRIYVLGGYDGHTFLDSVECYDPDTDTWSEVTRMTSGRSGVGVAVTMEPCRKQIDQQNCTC
row,Structure (SMILES),IC50 [µM]
1,CN1CCC(SC(=S)NCC2CCS(=O)(=O)C2)CC1 (stereo not given),> 100
2,CS(=O)(=O)N1CCC(CCN=C=S)C1 (stereo not given),> 100
3,[O-][S+](CCCCN=C=S)c1ccccc1 (stereo not given),50.1
4,C[S+]([O-])CCCCNC(=S)SC1CCN(C(=O)OC(C)(C)C)CC1 (stereo not given),> 100
5,O=S(=O)(CCCCN=C=S)CCN1CCOCC1,> 100
6,CN(C)CCS(=O)(=O)CCCCN=C=S,> 100
7,C[S+]([O-])CCCCCN=C=S (stereo not given),> 100
8,O=C(NCCCCN=C=S)c1ccncc1,> 100
9,C[S+]([O-])CCCCNC(=S)SCCSC(=S)NCCCC[S+](C)[O-] (stereo not given),> 100
10,COC(=O)C(C[S+]([O-])CCCCN=C=S)NC(C)=O (stereo not given),> 100
11,O=C(O)C(F)(F)F.[O-][S+](CCCCN=C=S)CCN1CCOCC1 (stereo not given),> 100
12,CC(=O)NCC[S+]([O-])CCCCN=C=S (stereo not given),> 100

# The remaining lines, values ahead:
row,IC50 [µM],Structure (SMILES)
1,25.1,C[S+]([O-])CCCCNC(=S)SCCCO (stereo not given)
2,10,CN1CCC(SC(=S)NCCCCNC(=O)OCc2ccccc2)CC1
3,50.1,O=S(=O)(CC1(N2CCC(CN=C=S)C2)COC1)c1ccccc1 (stereo not given)
4,25.1,O=S(=O)(/C=C(\CO)CN1CCC(CN=C=S)CC1)c1ccccc1
5,39.8,O=C(NCCCCN=C=S)Nc1cccnc1
6,31.6,[O-][S+](CCCCN=C=S)c1ccccn1 (stereo not given)
7,50.1,CNC(=O)NCCCCN=C=S
8,50.1,CC(C)(C)OC(=O)N1CCC(SC(=S)NCCCCNC(=O)Nc2ccc3c(c2)OCO3)CC1
9,50.1,Cl.O=C(NCCCCNC(=S)SC1CCNCC1)NC1CCCC1
10,63.1,CCNC(=O)N1CCC(SC(=S)NCCCCNC(=O)NCc2ccccc2)CC1
11,3.98,CN1CCC(SC(=S)NCCCCNC(=O)OCc2ccccc2Cl)CC1
12,20,CN1CCC(SC(=S)NCCCCNC(=O)Nc2ccncc2)CC1
13,50.1,CC(C)(C)OC(=O)N1CCC(SC(=S)NCCCCNC(=O)Nc2cccnc2)CC1

# Test system: not listed separately
# Assay: Kinetic solubility of the compound at pH 7.4 by CLND method
# Format: physicochemical
# Details: buffer, read-out: Kinetic_solubility
row,Structure (SMILES),solubility kinetic [µM]
1,CN1CCC(SC(=S)NCC2CCS(=O)(=O)C2)CC1 (stereo not given),≥ 331
2,CS(=O)(=O)N1CCC(CCN=C=S)C1 (stereo not given),288
3,[O-][S+](CCCCN=C=S)c1ccccc1 (stereo not given),213
4,C[S+]([O-])CCCCNC(=S)SC1CCN(C(=O)OC(C)(C)C)CC1 (stereo not given),382
5,O=S(=O)(CCCCN=C=S)CCN1CCOCC1,273
6,CN(C)CCS(=O)(=O)CCCCN=C=S,376
7,C[S+]([O-])CCCCCN=C=S (stereo not given),≥ 458
8,O=C(NCCCCN=C=S)c1ccncc1,≥ 358
9,C[S+]([O-])CCCCNC(=S)SCCSC(=S)NCCCC[S+](C)[O-] (stereo not given),≥ 425
10,COC(=O)C(C[S+]([O-])CCCCN=C=S)NC(C)=O (stereo not given),279
11,O=C(O)C(F)(F)F.[O-][S+](CCCCN=C=S)CCN1CCOCC1 (stereo not given),81
12,CC(=O)NCC[S+]([O-])CCCCN=C=S (stereo not given),≥ 180

# Now from value to compound:
row,solubility kinetic [µM],Structure (SMILES)
1,≥ 467,C[S+]([O-])CCCCNC(=S)SCCCO (stereo not given)
2,355,CN1CCC(SC(=S)NCCCCNC(=O)OCc2ccccc2)CC1
3,242,O=S(=O)(CC1(N2CCC(CN=C=S)C2)COC1)c1ccccc1 (stereo not given)
4,187,O=S(=O)(/C=C(\CO)CN1CCC(CN=C=S)CC1)c1ccccc1
5,≥ 428,O=C(NCCCCN=C=S)Nc1cccnc1
6,≥ 372,[O-][S+](CCCCN=C=S)c1ccccn1 (stereo not given)
7,≥ 436,CNC(=O)NCCCCN=C=S
8,17,CC(C)(C)OC(=O)N1CCC(SC(=S)NCCCCNC(=O)Nc2ccc3c(c2)OCO3)CC1
9,≥ 323,Cl.O=C(NCCCCNC(=S)SC1CCNCC1)NC1CCCC1
10,255,CCNC(=O)N1CCC(SC(=S)NCCCCNC(=O)NCc2ccccc2)CC1
11,280,CN1CCC(SC(=S)NCCCCNC(=O)OCc2ccccc2Cl)CC1
12,≥ 350,CN1CCC(SC(=S)NCCCCNC(=O)Nc2ccncc2)CC1
13,114,CC(C)(C)OC(=O)N1CCC(SC(=S)NCCCCNC(=O)Nc2cccnc2)CC1

# Test system: not listed separately
# Assay: Binding affinity to FLAG/His-tagged Keap1 (unknown origin)/biotinylated full-length FLAG/His/Tev/Avi-tagged Cul3 (unknown origin) expressed in baculovirus infected Sf9 insect cells measured after 1 hr by TR-FRET assay
# Set-up: species or system Homo sapiens
# Details: not given
row,Structure (SMILES),pIC50
1,C[S+]([O-])CCCCNC(=S)SCCCO (stereo not given),< 4
2,CN1CCC(SC(=S)NCCCCNC(=O)OCc2ccccc2)CC1,5.2
3,CN1CCC(SC(=S)NCC2CCS(=O)(=O)C2)CC1 (stereo not given),< 4
4,O=S(=O)(CC1(N2CCC(CN=C=S)C2)COC1)c1ccccc1 (stereo not given),4.7
5,O=S(=O)(/C=C(\CO)CN1CCC(CN=C=S)CC1)c1ccccc1,5.6
6,CS(=O)(=O)N1CCC(CCN=C=S)C1 (stereo not given),4.3
7,[O-][S+](CCCCN=C=S)c1ccccc1 (stereo not given),4.3
8,O=C(NCCCCN=C=S)Nc1cccnc1,4.5
9,C[S+]([O-])CCCCNC(=S)SC1CCN(C(=O)OC(C)(C)C)CC1 (stereo not given),4.3
10,O=S(=O)(CCCCN=C=S)CCN1CCOCC1,< 4
11,[O-][S+](CCCCN=C=S)c1ccccn1 (stereo not given),4.2
12,CN(C)CCS(=O)(=O)CCCCN=C=S,4.4
13,C[S+]([O-])CCCCCN=C=S (stereo not given),4.1
14,O=C(NCCCCN=C=S)c1ccncc1,4.4
15,CNC(=O)NCCCCN=C=S,4.1
16,C[S+]([O-])CCCCNC(=S)SCCSC(=S)NCCCC[S+](C)[O-] (stereo not given),4.3
17,CC(C)(C)OC(=O)N1CCC(SC(=S)NCCCCNC(=O)Nc2ccc3c(c2)OCO3)CC1,4.4
18,COC(=O)C(C[S+]([O-])CCCCN=C=S)NC(C)=O (stereo not given),< 4
19,Cl.O=C(NCCCCNC(=S)SC1CCNCC1)NC1CCCC1,4.6
20,CCNC(=O)N1CCC(SC(=S)NCCCCNC(=O)NCc2ccccc2)CC1,4.4
21,O=C(O)C(F)(F)F.[O-][S+](CCCCN=C=S)CCN1CCOCC1 (stereo not given),< 4
22,CC(=O)NCC[S+]([O-])CCCCN=C=S (stereo not given),< 4
23,CN1CCC(SC(=S)NCCCCNC(=O)OCc2ccccc2Cl)CC1,5.3
24,CN1CCC(SC(=S)NCCCCNC(=O)Nc2ccncc2)CC1,4.9
25,CC(C)(C)OC(=O)N1CCC(SC(=S)NCCCCNC(=O)Nc2cccnc2)CC1,4.3

# Test system: not listed separately
# Assay: Lipophilicity, log D of the compound at pH 7.4 by chromatographic method
# Format: physicochemical
# Details: buffer
row,Structure (SMILES),chromatographic logD
1,CN1CCC(SC(=S)NCC2CCS(=O)(=O)C2)CC1 (stereo not given),1.03
2,CS(=O)(=O)N1CCC(CCN=C=S)C1 (stereo not given),3.87
3,[O-][S+](CCCCN=C=S)c1ccccc1 (stereo not given),4.11
4,C[S+]([O-])CCCCNC(=S)SC1CCN(C(=O)OC(C)(C)C)CC1 (stereo not given),4.23
5,O=S(=O)(CCCCN=C=S)CCN1CCOCC1,2.93
6,CN(C)CCS(=O)(=O)CCCCN=C=S,2.84
7,C[S+]([O-])CCCCCN=C=S (stereo not given),3.12
8,O=C(NCCCCN=C=S)c1ccncc1,2.86
9,C[S+]([O-])CCCCNC(=S)SCCSC(=S)NCCCC[S+](C)[O-] (stereo not given),1.9
10,COC(=O)C(C[S+]([O-])CCCCN=C=S)NC(C)=O (stereo not given),1.61
11,O=C(O)C(F)(F)F.[O-][S+](CCCCN=C=S)CCN1CCOCC1 (stereo not given),1.91
12,CC(=O)NCC[S+]([O-])CCCCN=C=S (stereo not given),1.09

# Continued, values first:
row,chromatographic logD,Structure (SMILES)
1,0.68,C[S+]([O-])CCCCNC(=S)SCCCO (stereo not given)
2,3.49,CN1CCC(SC(=S)NCCCCNC(=O)OCc2ccccc2)CC1
3,5.02,O=S(=O)(CC1(N2CCC(CN=C=S)C2)COC1)c1ccccc1 (stereo not given)
4,7.09,O=S(=O)(/C=C(\CO)CN1CCC(CN=C=S)CC1)c1ccccc1
5,2.79,O=C(NCCCCN=C=S)Nc1cccnc1
6,3.16,[O-][S+](CCCCN=C=S)c1ccccn1 (stereo not given)
7,2,CNC(=O)NCCCCN=C=S
8,6.04,CC(C)(C)OC(=O)N1CCC(SC(=S)NCCCCNC(=O)Nc2ccc3c(c2)OCO3)CC1
9,1.52,Cl.O=C(NCCCCNC(=S)SC1CCNCC1)NC1CCCC1
10,3.43,CCNC(=O)N1CCC(SC(=S)NCCCCNC(=O)NCc2ccccc2)CC1
11,4.06,CN1CCC(SC(=S)NCCCCNC(=O)OCc2ccccc2Cl)CC1
12,1.02,CN1CCC(SC(=S)NCCCCNC(=O)Nc2ccncc2)CC1
13,4.97,CC(C)(C)OC(=O)N1CCC(SC(=S)NCCCCNC(=O)Nc2cccnc2)CC1

# Species: Homo sapiens
# Assay: Activation of Keap1/Cul3/Nrf2 in NHBE cells assessed as induction of HO-1 gene expression at 10 uM after 24 hrs by RT-PCR analysis relative to SFN
# Format: cell-based
# Details: not given
row,Structure (SMILES),fold change (FC)
1,C[S+]([O-])CCCCNC(=S)SCCCO (stereo not given),0.24
2,CN1CCC(SC(=S)NCCCCNC(=O)OCc2ccccc2)CC1,4.67
3,CN1CCC(SC(=S)NCC2CCS(=O)(=O)C2)CC1 (stereo not given),0.38
4,O=S(=O)(CC1(N2CCC(CN=C=S)C2)COC1)c1ccccc1 (stereo not given),8.15
5,O=S(=O)(/C=C(\CO)CN1CCC(CN=C=S)CC1)c1ccccc1,25.3
6,CS(=O)(=O)N1CCC(CCN=C=S)C1 (stereo not given),4.27
7,[O-][S+](CCCCN=C=S)c1ccccc1 (stereo not given),5.99
8,O=C(NCCCCN=C=S)Nc1cccnc1,13.6
9,C[S+]([O-])CCCCNC(=S)SC1CCN(C(=O)OC(C)(C)C)CC1 (stereo not given),0.48
10,O=S(=O)(CCCCN=C=S)CCN1CCOCC1,0.22
11,[O-][S+](CCCCN=C=S)c1ccccn1 (stereo not given),1.17
12,CN(C)CCS(=O)(=O)CCCCN=C=S,3.25
13,C[S+]([O-])CCCCCN=C=S (stereo not given),0.35
14,O=C(NCCCCN=C=S)c1ccncc1,0.93
15,CNC(=O)NCCCCN=C=S,1.04
16,C[S+]([O-])CCCCNC(=S)SCCSC(=S)NCCCC[S+](C)[O-] (stereo not given),0.74
17,CC(C)(C)OC(=O)N1CCC(SC(=S)NCCCCNC(=O)Nc2ccc3c(c2)OCO3)CC1,55.6
18,COC(=O)C(C[S+]([O-])CCCCN=C=S)NC(C)=O (stereo not given),0.11
19,Cl.O=C(NCCCCNC(=S)SC1CCNCC1)NC1CCCC1,3.46
20,CCNC(=O)N1CCC(SC(=S)NCCCCNC(=O)NCc2ccccc2)CC1,81.8
21,O=C(O)C(F)(F)F.[O-][S+](CCCCN=C=S)CCN1CCOCC1 (stereo not given),0.16
22,CC(=O)NCC[S+]([O-])CCCCN=C=S (stereo not given),0.15
23,CN1CCC(SC(=S)NCCCCNC(=O)OCc2ccccc2Cl)CC1,6.26
24,CN1CCC(SC(=S)NCCCCNC(=O)Nc2ccncc2)CC1,29.8
25,CC(C)(C)OC(=O)N1CCC(SC(=S)NCCCCNC(=O)Nc2cccnc2)CC1,2.88
